Laboratory results reported in patent US10722599B2, “Lipid assemblies and uses thereof and some pH and electrostatic modulating lipids to be used in said assemblies” (Yissum Research Development Company of the Hebrew …, priority 2015, dated 2020).
Where two headings read alike, the source gives them in different places.

Legend:
[1] = in vivo, iv, 1 mg/kg
Procedure: (§1) Three animals were injected IV in each group with a dose of 1 mg/kg. Plasma was isolated at serial time points: pre-dosing (time 0), 10 minutes, 30 minutes, 1 hour, 2 hours 4 hours, 6 hours and 24 hours. RNA was extracted from the plasma according to Rosetta Genomics' protocol of miRNA isolation from fluids. qPCR was done for miR-34a, normalized to selected miRNAs: hsa-miR-16-5p, hsa-miR-103a-3p and hsa-miR-23a-3p.

[2] = PK study with formulated miRNA; conditions: 71%-14%, from plasma levels at 30 minutes
Procedure: as §1

[3] = test system: orthotopic intraperitoneal tumors of SKOV-3 human ovarian adenocarcinoma cells; conditions: mouse, in vivo, ip, 7 mg/kg
Procedure: (§2) In vivo bio-distribution and activity of miR-34a or siRNA formulated with DOPC/Ampholip was evaluated in female nude mice bearing orthotopic intraperitoneal tumors of SKOV-3 human ovarian adenocarcinoma cells.
(§3) This experiment intended to assess the bio-distribution and activity of amphoteric liposomes/miR34a and amphoteric liposomes/miR-34a-SL. To this end, experimental model female nude mice bearing the orthotopic tumors received three series of repeated intraperitoneal (IP) injections (at days 20, 22 and 25) with amphoteric liposomes/miRNA in concentration of 7 mg/kg of miRNA. Twenty-four hours after the last dose the tumors were removed, and RNA extracted.

[4] = test system: orthotopic intraperitoneal tumors of SKOV-3 human ovarian adenocarcinoma cells; experiment: In vivo SKOV model: miR-34a accumulation in tumor (Ampholip 1); conditions: IP, 7 mg/kg miRNA, days 20, 22, 25, tumors 24 h after last dose, 'miR-34a-SL' = DOPC/Ampholip1/miR-34a-SL (2M), folate formulation = DOPC/Ampholip1/Folate/miR-34a (1M)
Procedure: as §2, §3

BALB/c mice = experiment: In vivo toxicity, single IV escalating dose; conditions: as formulated siRNA, Ampholip1 up to 10 mg/kg, Ampholip2 up to 5 mg/kg, 24 hours and 7 days
Procedure: Each group comprised six (6) males and six (6) females BALB/cOlaHsd mice, where half of each group (3 males and 3 females) were assigned to 24 hours or 7 days termination time points, respectively. Animals were subjected to clinical hematology and biochemistry assessment at 24 hours and 7 days post dosing, followed by gross macroscopic examination. The following parameters were evaluated for toxicity: mortality, clinical signs, body weight, weight gain, hematology and biochemistry tests.

## miR-34a: hsa-miR-34a naked (non-conjugated) duplex, SEQ ID NO 1 and 2 (chain 1 UGGCAGUGUCUUAGCUGGUUGU; chain 2 ACAAUCAGCAAGUAUACUGCCC; further chemistry not given here; listed as Homo sapiens)
[1]
  plasma stability / bioavailability of miR-34a, in words: rapidly degraded
[2]
  estimate of encapsulation: 57%

## miR-34a-SL: hsa-miR-34a conjugated to sphingolipid, SEQ ID NO 1 and 3 (chain 1 UGGCAGUGUCUUAGCUGGUUGU; chain 2 CAAUCAGCAAGUAUACUGCCCU; sphingolipid conjugate, position not given here; listed as Homo sapiens)
[3]
  fold enrichment of miR-34a in tumor relative to the negative controls: two
[4]
  fold enrichment of miR-34a in tumor relative to the negative controls: 604 fold
[1]
  share in circulation at 30 minutes relative to 10 minutes: 14%

## CCCCCCCCCCCCC/C=C/[C@@H](O)[C@H](COC(=O)NCCCNCCCCNCCCNC(=O)CCC(=O)O)NC(=O)CCCCCCCCCCCCCCC [Ampholip 2, Carboxy-N-palmitoyl-D-erythro-sphingosyl-1-carbamoyl spermine]
BALB/c mice
  gross pathological findings: no gross pathological findings
  mortality, clinical signs, body weight, weight gain, hematology and biochemistry vs saline-treated groups: No significant statistical difference
